System: cockroaches (Blattella germanica)
Test: Weeklong surface area toxicity test on cockroaches (Example 19)
Assay type: in vivo
Conditions: for cockroaches alive (of five): 0-1 days; for cockroaches alive (of five per cup): 3-4 days treatment
Protocol: In order determine the toxicity of the formulation to the insect after application to a surface over a period of time, the following test was performed. […] Cockroaches were placed in the cups on the first day following the application of the formulations, on the third day following the application of the formulations, and on the sixth day following the application of the formulations in order to monitor the toxicity of the formulations after a period of time had elapsed. The mortality of the cockroaches was then recorded at the time intervals noted. The five cockroaches placed in each cup were one week old cockroaches (Blattella germanica) which had been reared at twenty seven degrees centigrade, at sixty five percent relative humidity, and on a twelve hour light to dark photoperiod. Each of the cups had Fluon®AD1 treated sides to prevent the escape of the cockroaches.

With `CCCCCCCCCC(C)=O` [Undecanone, 2-Undecanone] as the compound, how does the “cockroaches alive (of five)” value (0.02 μL/cm^2 (1 μL), 5 min) read?
The value was 5.

And the “cockroaches alive (of five)” value (0.02 μL/cm^2 (1 μL), 10 min)?
The value was 5.

What about the “cockroaches alive (of five)” value (0.02 μL/cm^2 (1 μL), 15 min) of the same compound?
Its value is 5.

And the “cockroaches alive (of five)” value (0.02 μL/cm^2 (1 μL), 30 min)?
The value was 5.

And the “cockroaches alive (of five)” value (0.02 μL/cm^2 (1 μL), 60 min)?
The value was 5.

And the “cockroaches alive (of five)” value (0.02 μL/cm^2 (1 μL), 90 min)?
The value was 5.

And the “cockroaches alive (of five)” value (0.02 μL/cm^2 (1 μL), 2 h)?
The value was 5.

What about the “cockroaches alive (of five)” value (0.02 μL/cm^2 (1 μL), 4 h) of the same compound?
Its value is 5.

And the “cockroaches alive (of five)” value (0.02 μL/cm^2 (1 μL), 17.5 h)?
The value was 5.

And the “cockroaches alive (of five)” value (0.02 μL/cm^2 (1 μL), 18 h)?
The value was 5.

What about the “cockroaches alive (of five)” value (0.02 μL/cm^2 (1 μL), 21 h) of the same compound?
Its value is 5.

And the “cockroaches alive (of five)” value (0.02 μL/cm^2 (1 μL), 24 h)?
Its value is 5.

And the “cockroaches alive (of five)” value (0.02 μL/cm^2 (1 μL), 27.5 h)?
Its value is 5.

What about the “cockroaches alive (of five)” value (0.02 μL/cm^2 (1 μL), 29 h) of the same compound?
Its value is 5.

What about the “cockroaches alive (of five)” value (0.02 μL/cm^2 (1 μL), 30 h) of the same compound?
Its value is 5.

What about the “cockroaches alive (of five)” value (0.09 μL/cm^2 (5 μL), 5 min) of the same compound?
Its value is 5.

And the “cockroaches alive (of five)” value (0.09 μL/cm^2 (5 μL), 10 min)?
The value was 5.

What about the “cockroaches alive (of five)” value (0.09 μL/cm^2 (5 μL), 15 min) of the same compound?
The value was 4.

And the “cockroaches alive (of five)” value (0.09 μL/cm^2 (5 μL), 30 min)?
The value was 4.

And the “cockroaches alive (of five)” value (0.09 μL/cm^2 (5 μL), 60 min)?
Its value is 4.

What about the “cockroaches alive (of five)” value (0.09 μL/cm^2 (5 μL), 90 min) of the same compound?
Its value is 4.

What about the “cockroaches alive (of five)” value (0.09 μL/cm^2 (5 μL), 2 h) of the same compound?
Its value is 4.

And the “cockroaches alive (of five)” value (0.09 μL/cm^2 (5 μL), 4 h)?
Its value is 4.

What about the “cockroaches alive (of five)” value (0.09 μL/cm^2 (5 μL), 17.5 h) of the same compound?
Its value is 4.

What about the “cockroaches alive (of five)” value (0.09 μL/cm^2 (5 μL), 18 h) of the same compound?
Its value is 4.

What about the “cockroaches alive (of five)” value (0.09 μL/cm^2 (5 μL), 21 h) of the same compound?
Its value is 4.

What about the “cockroaches alive (of five)” value (0.09 μL/cm^2 (5 μL), 24 h) of the same compound?
The value was 4.

And the “cockroaches alive (of five)” value (0.09 μL/cm^2 (5 μL), 27.5 h)?
The value was 3.

And the “cockroaches alive (of five)” value (0.09 μL/cm^2 (5 μL), 29 h)?
The value was 3.

What about the “cockroaches alive (of five)” value (0.09 μL/cm^2 (5 μL), 30 h) of the same compound?
Its value is 3.

And the “cockroaches alive (of five)” value (0.19 μL/cm^2 (10 μL), 5 min)?
Its value is 5.

And the “cockroaches alive (of five)” value (0.19 μL/cm^2 (10 μL), 10 min)?
Its value is 5.

What about the “cockroaches alive (of five)” value (0.19 μL/cm^2 (10 μL), 15 min) of the same compound?
The value was 5.

What about the “cockroaches alive (of five)” value (0.19 μL/cm^2 (10 μL), 30 min) of the same compound?
The value was 2.

And the “cockroaches alive (of five)” value (0.19 μL/cm^2 (10 μL), 60 min)?
Its value is 0.

And the “cockroaches alive (of five)” value (0.19 μL/cm^2 (10 μL), 90 min)?
The value was 0.

And the “cockroaches alive (of five)” value (0.19 μL/cm^2 (10 μL), 2 h)?
The value was 0.

What about the “cockroaches alive (of five)” value (0.19 μL/cm^2 (10 μL), 4 h) of the same compound?
Its value is 0.

And the “cockroaches alive (of five)” value (0.19 μL/cm^2 (10 μL), 17.5 h)?
The value was 0.

And the “cockroaches alive (of five)” value (0.19 μL/cm^2 (10 μL), 18 h)?
Its value is 0.

What about the “cockroaches alive (of five)” value (0.19 μL/cm^2 (10 μL), 21 h) of the same compound?
The value was 0.

What about the “cockroaches alive (of five)” value (0.19 μL/cm^2 (10 μL), 24 h) of the same compound?
The value was 0.

And the “cockroaches alive (of five)” value (0.19 μL/cm^2 (10 μL), 27.5 h)?
Its value is 0.

What about the “cockroaches alive (of five)” value (0.19 μL/cm^2 (10 μL), 29 h) of the same compound?
The value was 0.

And the “cockroaches alive (of five)” value (0.19 μL/cm^2 (10 μL), 30 h)?
Its value is 0.

And the “cockroaches alive (of five)” value (0.95 μL/cm^2 (50 μL), 5 min)?
The value was 0.

What about the “cockroaches alive (of five)” value (0.95 μL/cm^2 (50 μL), 10 min) of the same compound?
Its value is 0.

And the “cockroaches alive (of five)” value (0.95 μL/cm^2 (50 μL), 15 min)?
Its value is 0.

And the “cockroaches alive (of five)” value (0.95 μL/cm^2 (50 μL), 30 min)?
The value was 0.

What about the “cockroaches alive (of five)” value (0.95 μL/cm^2 (50 μL), 60 min) of the same compound?
The value was 0.

And the “cockroaches alive (of five)” value (0.95 μL/cm^2 (50 μL), 90 min)?
Its value is 0.

What about the “cockroaches alive (of five)” value (0.95 μL/cm^2 (50 μL), 2 h) of the same compound?
The value was 0.

And the “cockroaches alive (of five)” value (0.95 μL/cm^2 (50 μL), 4 h)?
The value was 0.

What about the “cockroaches alive (of five)” value (0.95 μL/cm^2 (50 μL), 17.5 h) of the same compound?
Its value is 0.

And the “cockroaches alive (of five)” value (0.95 μL/cm^2 (50 μL), 18 h)?
The value was 0.

What about the “cockroaches alive (of five)” value (0.95 μL/cm^2 (50 μL), 21 h) of the same compound?
Its value is 0.

And the “cockroaches alive (of five)” value (0.95 μL/cm^2 (50 μL), 24 h)?
Its value is 0.

What about the “cockroaches alive (of five)” value (0.95 μL/cm^2 (50 μL), 27.5 h) of the same compound?
The value was 0.

What about the “cockroaches alive (of five)” value (0.95 μL/cm^2 (50 μL), 29 h) of the same compound?
The value was 0.

And the “cockroaches alive (of five)” value (0.95 μL/cm^2 (50 μL), 30 h)?
Its value is 0.

And the “cockroaches alive (of five per cup)” value (0.02 μL/cm^2 (1 μL), 5 min)?
The value was 5.

And the “cockroaches alive (of five per cup)” value (0.02 μL/cm^2 (1 μL), 10 min)?
The value was 5.

And the “cockroaches alive (of five per cup)” value (0.02 μL/cm^2 (1 μL), 15 min)?
The value was 5.

What about the “cockroaches alive (of five per cup)” value (0.02 μL/cm^2 (1 μL), 30 min) of the same compound?
Its value is 5.

And the “cockroaches alive (of five per cup)” value (0.02 μL/cm^2 (1 μL), 60 min)?
The value was 5.

And the “cockroaches alive (of five per cup)” value (0.02 μL/cm^2 (1 μL), 90 min)?
Its value is 5.

What about the “cockroaches alive (of five per cup)” value (0.02 μL/cm^2 (1 μL), 2 h) of the same compound?
The value was 5.

And the “cockroaches alive (of five per cup)” value (0.02 μL/cm^2 (1 μL), 4 h)?
The value was 5.

What about the “cockroaches alive (of five per cup)” value (0.02 μL/cm^2 (1 μL), 23 h) of the same compound?
Its value is 5.

And the “cockroaches alive (of five per cup)” value (0.02 μL/cm^2 (1 μL), 24 h)?
Its value is 5.

What about the “cockroaches alive (of five per cup)” value (0.02 μL/cm^2 (1 μL), 27 h) of the same compound?
The value was 5.

And the “cockroaches alive (of five per cup)” value (0.02 μL/cm^2 (1 μL), 30 h)?
The value was 5.

And the “cockroaches alive (of five per cup)” value (0.09 μL/cm^2 (5 μL), 5 min)?
The value was 5.

What about the “cockroaches alive (of five per cup)” value (0.09 μL/cm^2 (5 μL), 10 min) of the same compound?
Its value is 5.

And the “cockroaches alive (of five per cup)” value (0.09 μL/cm^2 (5 μL), 15 min)?
The value was 5.

What about the “cockroaches alive (of five per cup)” value (0.09 μL/cm^2 (5 μL), 30 min) of the same compound?
Its value is 5.

And the “cockroaches alive (of five per cup)” value (0.09 μL/cm^2 (5 μL), 60 min)?
Its value is 5.

And the “cockroaches alive (of five per cup)” value (0.09 μL/cm^2 (5 μL), 90 min)?
Its value is 5.

What about the “cockroaches alive (of five per cup)” value (0.09 μL/cm^2 (5 μL), 2 h) of the same compound?
The value was 5.

What about the “cockroaches alive (of five per cup)” value (0.09 μL/cm^2 (5 μL), 4 h) of the same compound?
Its value is 5.
